ChEMBL document CHEMBL3885861, “Open TG-GATES”

Organism: Rattus norvegicus
Test: Open TG-GATES - Regimen: Daily Repeat
Format: toxicity, organism-based, Sprague-Dawley
Design: regimen Daily Repeat, gender Male, age 6 weeks
Conditions: in vivo, po, route gavage; for APTT / Bas / Eos / Fbg / Hb / Ht / Lym / MCH / MCHC / MCV / Mono / Neu / PT / Plat / RBC / Ret / WBC: tissue Blood; for KIDNEY_L / KIDNEY_R / KIDNEY_TOTAL: tissue Kidney; for LIVER: tissue Liver; for A/G / ALP / ALT / AST / BUN / CRE / Ca / Cl / DBIL / GLC / IP / K / LDH / Na / PL / RALB / TBIL / TC / TG / TP / gamma-GTP: tissue Plasma
[1] = 100 mg/kg, 72 h, dose level Middle, time 3 day
[2] = 100 mg/kg, […], dose level Middle, time 7 day
[3] = 100 mg/kg, […], dose level Middle, time 14 day
[4] = 100 mg/kg, […], dose level Middle, time 28 day
[5] = 300 mg/kg, 72 h, dose level High, time 3 day
[6] = 300 mg/kg, […], dose level High, time 7 day
[7] = 300 mg/kg, […], dose level High, time 14 day
[8] = 300 mg/kg, […], dose level High, time 28 day

## CC(=O)Nc1ccc2c(c1)Cc1ccccc1-2 [2-ACETYLAMINOFLUORENE]
[1]
  TERMINAL_BW: 202.9 g
  APTT: 20.1 s
  Bas: 0.8%
  Eos: 0.8%
  Fbg: 260.6 mg/dL
  Hb: 15.7 g/dL
  Ht: 45.1%
  Lym: 72.4%
  MCH: 21.9 pg
  MCHC: 34.9%
  MCV: 62.7 fL
  Mono: 2.8%
  Neu: 22.4%
  PT: 12.7 s
  Plat: 133.7 x10_4/uL
  RBC: 718.2 x10_4/ul
  Ret: 3.6%
  WBC: 85 x10_2/uL
  KIDNEY_L: 1 g
  KIDNEY_R: 0.9 g
  KIDNEY_TOTAL: 1.9 g
  LIVER: 8.8 g
  A/G: 1.4
  ALP: 615.4 IU/L
  ALT: 24 IU/L
  AST: 70.8 IU/L
  BUN: 11.4 mg/dL
  CRE: 0.4 mg/dL
  Ca: 10.1 mg/dL
  Cl: 104.4 meq/L
  DBIL: 0.076 mg/dL
  GLC: 191 mg/dL
  IP: 8.2 mg/dL
  K: 4.3 meq/L
  LDH: 220.8 IU/L
  Na: 141.6 meq/L
  PL: 86.2 mg/dL
  RALB: 2.9 g/dL
  TBIL: 0.1 mg/dL
  TC: 45.4 mg/dL
  TG: 47.6 mg/dL
  TP: 5 g/dL
  gamma-GTP: 1.2 IU/L
[2]
  TERMINAL_BW: 214.1 g
  APTT: 20.2 s
  Bas: 0.8%
  Eos: 0.6%
  Fbg: 167.8 mg/dL
  Hb: 14.7 g/dL
  Ht: 41.6%
  Lym: 83%
  MCH: 20.5 pg
  MCHC: 35.3%
  MCV: 58.1 fL
  Mono: 2.8%
  Neu: 12.2%
  PT: 13.8 s
  Plat: 174.6 x10_4/uL
  RBC: 715.8 x10_4/ul
  Ret: 1.2%
  WBC: 106.3 x10_2/uL
  KIDNEY_L: 1 g
  KIDNEY_R: 0.9 g
  KIDNEY_TOTAL: 1.9 g
  LIVER: 9.2 g
  A/G: 1.5
  ALP: 822.2 IU/L
  ALT: 33.8 IU/L
  AST: 83.4 IU/L
  BUN: 11.4 mg/dL
  CRE: 0.4 mg/dL
  Ca: 9.8 mg/dL
  Cl: 105.4 meq/L
  DBIL: 0.098 mg/dL
  GLC: 170.6 mg/dL
  IP: 6 mg/dL
  K: 4.1 meq/L
  LDH: 274.8 IU/L
  Na: 139.8 meq/L
  PL: 93 mg/dL
  RALB: 2.6 g/dL
  TBIL: 0.2 mg/dL
  TC: 37.6 mg/dL
  TG: 75.2 mg/dL
  TP: 4.4 g/dL
  gamma-GTP: 1 IU/L
[3]
  TERMINAL_BW: 247.1 g
  APTT: 18.3 s
  Bas: 0.8%
  Eos: 0%
  Fbg: 106.8 mg/dL
  Hb: 13.1 g/dL
  Ht: 38.5%
  Lym: 74.6%
  MCH: 19.7 pg
  MCHC: 34.1%
  MCV: 57.7 fL
  Mono: 3%
  Neu: 21%
  PT: 15.2 s
  Plat: 144.4 x10_4/uL
  RBC: 667 x10_4/ul
  Ret: 6.3%
  WBC: 169.9 x10_2/uL
  KIDNEY_L: 1.1 g
  KIDNEY_R: 1.1 g
  KIDNEY_TOTAL: 2.2 g
  LIVER: 10.6 g
  A/G: 1.3
  ALP: 791.2 IU/L
  ALT: 41 IU/L
  AST: 83.6 IU/L
  BUN: 13.6 mg/dL
  CRE: 0.5 mg/dL
  Ca: 9.6 mg/dL
  Cl: 103.4 meq/L
  DBIL: 0.6 mg/dL
  GLC: 157 mg/dL
  IP: 7.8 mg/dL
  K: 4.1 meq/L
  LDH: 206 IU/L
  Na: 141 meq/L
  PL: 104.8 mg/dL
  RALB: 2.3 g/dL
  TBIL: 0.7 mg/dL
  TC: 43.4 mg/dL
  TG: 64.6 mg/dL
  TP: 4.1 g/dL
  gamma-GTP: 2 IU/L
[4]
  TERMINAL_BW: 286 g
  APTT: 22.1 s
  Bas: 0.2%
  Eos: 0%
  Fbg: 74.4 mg/dL
  Hb: 13.6 g/dL
  Ht: 40.8%
  Lym: 61.6%
  MCH: 20.5 pg
  MCHC: 33.4%
  MCV: 61.3 fL
  Mono: 2.8%
  Neu: 34.2%
  PT: 18.8 s
  Plat: 149.9 x10_4/uL
  RBC: 667.6 x10_4/ul
  Ret: 6.6%
  WBC: 220.7 x10_2/uL
  KIDNEY_L: 1.3 g
  KIDNEY_R: 1.3 g
  KIDNEY_TOTAL: 2.5 g
  LIVER: 11.7 g
  A/G: 1.1
  ALP: 1005.4 IU/L
  ALT: 58.8 IU/L
  AST: 126.6 IU/L
  BUN: 12.4 mg/dL
  CRE: 0.4 mg/dL
  Ca: 8.9 mg/dL
  Cl: 104.6 meq/L
  DBIL: 1.2 mg/dL
  GLC: 146 mg/dL
  IP: 6.7 mg/dL
  K: 3.9 meq/L
  LDH: 264.4 IU/L
  Na: 141 meq/L
  PL: 128.8 mg/dL
  RALB: 2 g/dL
  TBIL: 1.6 mg/dL
  TC: 55.4 mg/dL
  TG: 76.2 mg/dL
  TP: 3.9 g/dL
  gamma-GTP: 9.6 IU/L
[5]
  TERMINAL_BW: 193.8 g
  APTT: 20.9 s
  Bas: 0.8%
  Eos: 0.8%
  Fbg: 229.4 mg/dL
  Hb: 15.2 g/dL
  Ht: 43.9%
  Lym: 71.4%
  MCH: 21.2 pg
  MCHC: 34.6%
  MCV: 61.2 fL
  Mono: 3%
  Neu: 23.2%
  PT: 12.8 s
  Plat: 140.3 x10_4/uL
  RBC: 716.4 x10_4/ul
  Ret: 2.9%
  WBC: 127.6 x10_2/uL
  KIDNEY_L: 0.9 g
  KIDNEY_R: 0.9 g
  KIDNEY_TOTAL: 1.9 g
  LIVER: 9.4 g
  A/G: 1.5
  ALP: 595 IU/L
  ALT: 24 IU/L
  AST: 72.2 IU/L
  BUN: 10.2 mg/dL
  CRE: 0.4 mg/dL
  Ca: 9.9 mg/dL
  Cl: 105.8 meq/L
  DBIL: 0.096 mg/dL
  GLC: 193.6 mg/dL
  IP: 7.4 mg/dL
  K: 4.3 meq/L
  LDH: 281.2 IU/L
  Na: 142.4 meq/L
  PL: 93.2 mg/dL
  RALB: 2.9 g/dL
  TBIL: 0.2 mg/dL
  TC: 49.2 mg/dL
  TG: 52.2 mg/dL
  TP: 5 g/dL
  gamma-GTP: 1.2 IU/L
[6]
  TERMINAL_BW: 219.8 g
  APTT: 19.8 s
  Bas: 0.6%
  Eos: 1%
  Fbg: 207 mg/dL
  Hb: 12.9 g/dL
  Ht: 36%
  Lym: 68.2%
  MCH: 21.4 pg
  MCHC: 35.9%
  MCV: 59.5 fL
  Mono: 3%
  Neu: 26.4%
  PT: 12.4 s
  Plat: 184.8 x10_4/uL
  RBC: 605.6 x10_4/ul
  Ret: 4.7%
  WBC: 186.5 x10_2/uL
  KIDNEY_L: 1 g
  KIDNEY_R: 1 g
  KIDNEY_TOTAL: 2 g
  LIVER: 11.5 g
  A/G: 1.5
  ALP: 616.8 IU/L
  ALT: 32 IU/L
  AST: 75.8 IU/L
  BUN: 13 mg/dL
  CRE: 0.5 mg/dL
  Ca: 10.4 mg/dL
  Cl: 102.8 meq/L
  DBIL: 0.1 mg/dL
  GLC: 165.8 mg/dL
  IP: 6.5 mg/dL
  K: 4 meq/L
  LDH: 224.2 IU/L
  Na: 138.4 meq/L
  PL: 113.2 mg/dL
  RALB: 2.8 g/dL
  TBIL: 0.2 mg/dL
  TC: 51.6 mg/dL
  TG: 115 mg/dL
  TP: 4.7 g/dL
  gamma-GTP: 1 IU/L
[7]
  TERMINAL_BW: 246.4 g
  APTT: 21.6 s
  Bas: 0.6%
  Eos: 0%
  Fbg: 169.6 mg/dL
  Hb: 13.2 g/dL
  Ht: 40.3%
  Lym: 73.2%
  MCH: 22.8 pg
  MCHC: 32.7%
  MCV: 70 fL
  Mono: 2.6%
  Neu: 23%
  PT: 13.5 s
  Plat: 163 x10_4/uL
  RBC: 576.8 x10_4/ul
  Ret: 14.7%
  WBC: 142.6 x10_2/uL
  KIDNEY_L: 1.1 g
  KIDNEY_R: 1 g
  KIDNEY_TOTAL: 2.1 g
  LIVER: 13.3 g
  A/G: 1.5
  ALP: 611.4 IU/L
  ALT: 39.8 IU/L
  AST: 70.4 IU/L
  BUN: 13.2 mg/dL
  CRE: 0.5 mg/dL
  Ca: 9.9 mg/dL
  Cl: 104.8 meq/L
  DBIL: 0.2 mg/dL
  GLC: 160.6 mg/dL
  IP: 6.8 mg/dL
  K: 4.3 meq/L
  LDH: 190 IU/L
  Na: 141 meq/L
  PL: 135.4 mg/dL
  RALB: 2.9 g/dL
  TBIL: 0.3 mg/dL
  TC: 54.8 mg/dL
  TG: 154.4 mg/dL
  TP: 4.8 g/dL
  gamma-GTP: 1.2 IU/L
[8]
  TERMINAL_BW: 274 g
  APTT: 23 s
  Bas: 0%
  Eos: 0.4%
  Fbg: 142 mg/dL
  Hb: 13.2 g/dL
  Ht: 39.8%
  Lym: 67.6%
  MCH: 20.9 pg
  MCHC: 33.1%
  MCV: 63.1 fL
  Mono: 2.6%
  Neu: 27.8%
  PT: 13.3 s
  Plat: 134.9 x10_4/uL
  RBC: 632.8 x10_4/ul
  Ret: 10.2%
  WBC: 131.2 x10_2/uL
  KIDNEY_L: 1.2 g
  KIDNEY_R: 1.2 g
  KIDNEY_TOTAL: 2.3 g
  LIVER: 13.2 g
  A/G: 1.3
  ALP: 649.6 IU/L
  ALT: 42.4 IU/L
  AST: 72.6 IU/L
  BUN: 14 mg/dL
  CRE: 0.5 mg/dL
  Ca: 9.8 mg/dL
  Cl: 104.8 meq/L
  DBIL: 0.3 mg/dL
  GLC: 162.2 mg/dL
  IP: 6.6 mg/dL
  K: 3.7 meq/L
  LDH: 169.8 IU/L
  Na: 140.4 meq/L
  PL: 145.6 mg/dL
  RALB: 2.7 g/dL
  TBIL: 0.4 mg/dL
  TC: 59.4 mg/dL
  TG: 134.8 mg/dL
  TP: 4.8 g/dL
  gamma-GTP: 4.8 IU/L
